Values after ≈ are worked out from the molar mass of the structure shown. Active and inactive are the calls of the source. The rule behind the calls is not given here.
Tests used:
Pseudomonas aeruginosa [1] = assay: Antibacterial activity against Pseudomonas aeruginosa PAO1 assessed as bacterial growth inhibition by CLSI based broth microdilution method; type: functional
Pseudomonas aeruginosa [2] = assay: Antibacterial activity against Pseudomonas aeruginosa FB assessed as bacterial growth inhibition by CLSI based broth microdilution method; type: functional
Pseudomonas aeruginosa [3] = assay: Antibacterial activity against Pseudomonas aeruginosa 1167 assessed as bacterial growth inhibition by CLSI based broth microdilution method; type: functional
Pseudomonas aeruginosa [4] = assay: Antibacterial activity against Pseudomonas aeruginosa 1121 assessed as bacterial growth inhibition by CLSI based broth microdilution method; type: functional
Pseudomonas aeruginosa [5] = assay: Antibacterial activity against Pseudomonas aeruginosa 1129 assessed as bacterial growth inhibition by CLSI based broth microdilution method; type: functional
Staphylococcus aureus [6] = assay: Antibacterial activity against Staphylococcus aureus ATCC 25923 assessed as bacterial growth inhibition by CLSI based broth microdilution method; type: functional
Staphylococcus aureus [7] = assay: Antibacterial activity against methicillin-resistant Staphylococcus aureus ATCC 43300 assessed as bacterial growth inhibition by CLSI based broth microdilution method; type: functional
Staphylococcus aureus [8] = assay: Antibacterial activity against methicillin-resistant Staphylococcus aureus ATCC 513045 assessed as bacterial growth inhibition by CLSI based broth microdilution method; type: functional
Staphylococcus aureus [9] = assay: Antibacterial activity against methicillin-resistant Staphylococcus aureus ATCC 515992 assessed as bacterial growth inhibition by CLSI based broth microdilution method; type: functional
Pseudomonas aeruginosa [10] = assay: Antibiofilm activity against Pseudomonas aeruginosa PAO1 assessed as […] biofilm biomass at MIC measured for 24 hrs by crystal violet staining; type: functional
Pseudomonas aeruginosa [11] = assay: Antibiofilm activity against Pseudomonas aeruginosa PAO1 assessed as […] biofilm biomass at 1/2 times MIC measured for 24 hrs by crystal violet staining; type: functional
Pseudomonas aeruginosa [12] = assay: Antibiofilm activity against Pseudomonas aeruginosa PAO1 assessed as […] biofilm biomass at 1/4 times MIC measured for 24 hrs by crystal violet staining; type: functional
Pseudomonas aeruginosa [13] = assay: Antibiofilm activity against Pseudomonas aeruginosa PAO1 measured for 24 hrs by crystal violet staining; type: functional
Pseudomonas aeruginosa [14] = assay: Potency index, ratio of ciprofloxacin MIC to test compound MIC for antibacterial activity against Pseudomonas aeruginosa PAO1 assessed as bacterial growth inhibition by CLSI based broth microdilution method; type: functional
Pseudomonas aeruginosa [15] = assay: Potency index, ratio of ciprofloxacin MIC to test compound MIC for antibiofilm activity against Pseudomonas aeruginosa PAO1 measured for 24 hrs by crystal violet staining; type: functional
Pseudomonas aeruginosa [16] = assay: Potency index, ratio of ciprofloxacin MIC to test compound MIC for antibiofilm activity against Pseudomonas aeruginosa PAO1 assessed as […] biofilm biomass at 1/2 times MIC measured for 24 hrs by crystal violet staining; type: functional
Pseudomonas aeruginosa [17] = assay: Antibiofilm activity against Pseudomonas aeruginosa assessed as biofilm eradication at 4 times MIC measured after 24 hrs by crystal violet staining based analysis; type: functional
Pseudomonas aeruginosa [18] = assay: Antibiofilm activity against Pseudomonas aeruginosa assessed as reduction in biofilm eradication at 1/4 times MIC measured after 24 hrs by crystal violet staining based analysis; type: functional, organism-based
Pseudomonas aeruginosa [19] = assay: Selectivity ratio of MIC for antibacterial activity against Pseudomonas aeruginosa PAO1 overexpressing fpvA mutant up to 8 times MIC to MIC for antibacterial activity against Pseudomonas aeruginosa PAO1 up to 8 times MIC; type: functional
Pseudomonas aeruginosa [20] = assay: Antibacterial activity against wild type Pseudomonas aeruginosa PAO1 up to 8 times MIC; type: functional, organism-based
Pseudomonas aeruginosa [21] = assay: Antibacterial activity against wild type Pseudomonas aeruginosa PAO1 […] delta pvdS up to 8 times MIC; type: functional, organism-based
Pseudomonas aeruginosa [22] = assay: Antibiofilm activity against Pseudomonas aeruginosa PAO1 assessed as reduction in biofilm formation at MIC measured for 24 hrs in presence of 10 uM of FeCl3 by crystal violet staining; type: functional; set-up: scale not given: the % may be the effect or the level left
Pseudomonas aeruginosa [23] = assay: Antibiofilm activity against Pseudomonas aeruginosa PAO1 assessed as reduction in biofilm formation at 1/2 times MIC measured for 24 hrs in presence of 10 uM of FeCl3 by crystal violet staining; type: functional; set-up: scale not given: the % may be the effect or the level left
Pseudomonas aeruginosa [24] = assay: Antibiofilm activity against Pseudomonas aeruginosa PAO1 assessed as reduction in biofilm formation at 1/4 times MIC measured for 24 hrs in presence of 10 uM of FeCl3 by crystal violet staining; type: functional; set-up: scale not given: the % may be the effect or the level left
Pseudomonas aeruginosa [25] = assay: Antibiofilm activity against Pseudomonas aeruginosa PAO1 assessed as reduction in biofilm formation at MIC measured for 24 hrs in presence of 40 uM of FeCl3 by crystal violet staining; type: functional; set-up: scale not given: the % may be the effect or the level left
Pseudomonas aeruginosa [26] = assay: Antibiofilm activity against Pseudomonas aeruginosa PAO1 assessed as reduction in biofilm formation at 1/2 times MIC measured for 24 hrs in presence of 40 uM of FeCl3 by crystal violet staining; type: functional; set-up: scale not given: the % may be the effect or the level left
Pseudomonas aeruginosa [27] = assay: Antibiofilm activity against Pseudomonas aeruginosa PAO1 assessed as reduction in biofilm formation at 1/4 times MIC measured for 24 hrs in presence of 40 uM of FeCl3 by crystal violet staining; type: functional; set-up: scale not given: the % may be the effect or the level left
Pseudomonas aeruginosa [28] = assay: Antivirulence activity against Pseudomonas aeruginosa PAO1 assessed as reduction in pyocyanin level incubated for 24 hrs by absorbance based assay; type: functional, organism-based
Pseudomonas aeruginosa [29] = assay: Antivirulence activity against Pseudomonas aeruginosa PAO1 assessed as reduction in rhamnolipid level incubated for 24 hrs by absorbance based assay; type: functional, organism-based
Pseudomonas aeruginosa [30] = assay: Antivirulence activity against Pseudomonas aeruginosa PAO1 assessed as reduction in rhamnolipid level at 4.27 uM incubated for 24 hrs by absorbance based assay relative to control; type: functional; set-up: scale not given: the % may be the effect or the level left
Pseudomonas aeruginosa [31] = assay: Antivirulence activity against Pseudomonas aeruginosa PAO1 assessed as reduction in pyocyanin level at 4.27 uM incubated for 24 hrs by absorbance based assay relative to control; type: functional; set-up: scale not given: the % may be the effect or the level left
Pseudomonas aeruginosa [32] = assay: Antivirulence activity against Pseudomonas aeruginosa PAO1 assessed as reduction in pyocyanin level in flask incubated for 24 hrs by absorbance based assay relative to control; type: functional, organism-based
Pseudomonas aeruginosa [33] = assay: Inhibition of swimming motility in Pseudomonas aeruginosa PAO1 at 4.27 uM incubated for 16 hrs relative to control; type: functional
Pseudomonas aeruginosa [34] = assay: Inhibition of swarming motility in Pseudomonas aeruginosa PAO1 at 4.27 uM incubated for 16 hrs relative to control; type: functional
Pseudomonas aeruginosa [35] = assay: Inhibition of twitching motility in Pseudomonas aeruginosa PAO1 at 4.27 uM incubated for 16 hrs relative to control; type: functional
Pseudomonas aeruginosa [36] = assay: Inhibition of twitching motility in Pseudomonas aeruginosa PAO1 incubated for 16 hrs; type: functional, organism-based; conditions: dose 4.27 µM
HEK293 [37] = assay: Cytotoxicity against HEK293 cells assessed as reduction in cell viability at 100 uM incubated for 16 hrs by MTT assay; type: toxicity, cell-based; conditions: human, hek293, 16 h
A549 = assay: Cytotoxicity against human A549 cells assessed as reduction in cell viability up to 100 uM incubated for 16 hrs by MTT assay; type: toxicity, cell-based; conditions: a549, 16 h
[38] = Toxicity in Caenorhabditis elegans infected with Pseudomonas aeruginosa PAO1 assessed as nematode survival at MIC incubated at 12 hrs
[39] = Toxicity in Caenorhabditis elegans infected with Pseudomonas aeruginosa PAO1 assessed as nematode survival at MIC incubated at 48 hrs relative to control
[40] = Toxicity in Caenorhabditis elegans infected with Pseudomonas aeruginosa PAO1 assessed as nematode survival at MIC incubated at 24 hrs relative to control
Pseudomonas aeruginosa [41] = assay: Antibacterial activity against Pseudomonas aeruginosa PAO1 overexpressing fpvA mutant up to 8 times MIC; type: functional, organism-based
HEK293 [42] = assay: Cytotoxicity against HEK293 cells assessed as reduction in cell viability at 100 uM incubated for 16 hrs by MTT assay relative to control; type: toxicity, cell-based; conditions: human, hek293, 16 h

SMILES: Cn1cc(O)c(=O)cc1COC(=O)c1cn(C2CC2)c2cc(N3CCNCC3)c(F)cc2c1=O
- MIC (Pseudomonas aeruginosa [1]): 1.07 µM (≈ 0.501 µg/mL)
- MIC (Pseudomonas aeruginosa [2]): 2.13 µM (≈ 0.998 µg/mL)
- MIC (Pseudomonas aeruginosa [3]): 2.13 µM (≈ 0.998 µg/mL)
- MIC (Pseudomonas aeruginosa [4]): 2.13 µM (≈ 0.998 µg/mL)
- MIC (Pseudomonas aeruginosa [5]): 4.27 µM (≈ 2 µg/mL)
- MIC (Staphylococcus aureus [6]): 4.27 µM (≈ 2 µg/mL)
- MIC (Staphylococcus aureus [7]): 2.13 µM (≈ 0.998 µg/mL)
- MIC (Staphylococcus aureus [8]): 4.27 µM (≈ 2 µg/mL)
- MIC (Staphylococcus aureus [9]): > 200 µM
- Activity (Pseudomonas aeruginosa [10]): 52.8%
- Activity (Pseudomonas aeruginosa [11]): 38.3%
- Activity (Pseudomonas aeruginosa [12]): 42.4%
- MIC (Pseudomonas aeruginosa [13]): 8.54 µM (≈ 4 µg/mL)
- Ratio (Pseudomonas aeruginosa [14]): 3
- Ratio (Pseudomonas aeruginosa [15]): 8
- Ratio (Pseudomonas aeruginosa [16]): 3
- Activity (Pseudomonas aeruginosa [17]): 75.7%
- Activity (Pseudomonas aeruginosa [18]): Active
- Ratio (Pseudomonas aeruginosa [19]): 2
- Activity (Pseudomonas aeruginosa [20]): inactive
- Activity (Pseudomonas aeruginosa [21]): inactive
- Activity (Pseudomonas aeruginosa [22]): 52.8%
- Activity (Pseudomonas aeruginosa [23]): 38.3%
- Activity (Pseudomonas aeruginosa [24]): 42.4%
- Activity (Pseudomonas aeruginosa [25]): 179.6%
- Activity (Pseudomonas aeruginosa [26]): 204.8%
- Activity (Pseudomonas aeruginosa [27]): 197.5%
- Activity (Pseudomonas aeruginosa [28]): Active
- Activity (Pseudomonas aeruginosa [29]): Active
- Activity (Pseudomonas aeruginosa [30]): ~20%
- Activity (Pseudomonas aeruginosa [31]): ~20%
- Activity (Pseudomonas aeruginosa [32]): Active
- inhibition at 4.27 µM (Pseudomonas aeruginosa [33]): 64.9%
- inhibition at 4.27 µM (Pseudomonas aeruginosa [34]): 53.7%
- inhibition at 4.27 µM (Pseudomonas aeruginosa [35]): 44.6%
- inhibition (Pseudomonas aeruginosa [36]): Dose-dependent-effect
- Activity (HEK293 [37]): Non-toxic
- Activity (A549): Non-toxic
- Activity [38]: Non-toxic
- survival at 48 h [39]: 50%
- Activity [40]: Toxic

SMILES: Cc1cc(=O)c(O)c(CNC(=O)c2cn(C3CC3)c3cc(N4CCNCC4)c(F)cc3c2=O)n1C
- MIC (Pseudomonas aeruginosa [1]): 17.1 µM (≈ 8.24 µg/mL)
- MIC (Pseudomonas aeruginosa [2]): 68.5 µM (≈ 33 µg/mL)
- MIC (Pseudomonas aeruginosa [3]): 17.1 µM (≈ 8.24 µg/mL)
- MIC (Pseudomonas aeruginosa [4]): 68.5 µM (≈ 33 µg/mL)
- MIC (Pseudomonas aeruginosa [5]): 34.2 µM (≈ 16.5 µg/mL)
- MIC (Staphylococcus aureus [6]): 34.2 µM (≈ 16.5 µg/mL)
- MIC (Staphylococcus aureus [7]): 34.2 µM (≈ 16.5 µg/mL)
- MIC (Staphylococcus aureus [8]): 68.5 µM (≈ 33 µg/mL)
- MIC (Staphylococcus aureus [9]): > 200 µM
- Activity (Pseudomonas aeruginosa [10]): 75.3%
- Activity (Pseudomonas aeruginosa [11]): 78.1%
- Activity (Pseudomonas aeruginosa [12]): 93.6%
- MIC (Pseudomonas aeruginosa [13]): 66.5 µM (≈ 32 µg/mL)

SMILES: COC(=O)c1cn(C2CC2)c2cc(N3CCNCC3)c(F)cc2c1=O
- MIC (Pseudomonas aeruginosa [1]): 185 µM (≈ 64 µg/mL)
- MIC (Pseudomonas aeruginosa [2]): > 200 µM
- MIC (Pseudomonas aeruginosa [3]): 185 µM (≈ 64 µg/mL)
- MIC (Pseudomonas aeruginosa [4]): > 200 µM
- MIC (Pseudomonas aeruginosa [5]): > 200 µM
- MIC (Staphylococcus aureus [6]): > 200 µM
- MIC (Staphylococcus aureus [7]): > 200 µM
- MIC (Staphylococcus aureus [8]): > 200 µM
- MIC (Staphylococcus aureus [9]): > 200 µM
- Activity (Pseudomonas aeruginosa [10]): 109.7%
- Activity (Pseudomonas aeruginosa [11]): 145.2%
- Activity (Pseudomonas aeruginosa [12]): 122.4%
- MIC (Pseudomonas aeruginosa [13]): 185 µM (≈ 64 µg/mL)
- inhibition (Pseudomonas aeruginosa [33]): inactive
- inhibition (Pseudomonas aeruginosa [34]): inactive
- inhibition (Pseudomonas aeruginosa [35]): inactive

SMILES: O=C(O)c1cn(C2CC2)c2cc(N3CCNCC3)c(F)cc2c1=O [CIPROFLOXACIN]
- Activity (Pseudomonas aeruginosa [17]): 42.6%
- Activity (Pseudomonas aeruginosa [41]): Active
- Activity (Pseudomonas aeruginosa [27]): 89.5%
- Activity (HEK293 [42]): 40%

SMILES: Cn1cc(O)c(=O)cc1CNC(=O)c1cn(C2CC2)c2cc(N3CCNCC3)c(F)cc2c1=O
- MIC (Pseudomonas aeruginosa [1]): 8.31 µM (≈ 3.88 µg/mL)
- MIC (Pseudomonas aeruginosa [2]): 8.31 µM (≈ 3.88 µg/mL)
- MIC (Pseudomonas aeruginosa [3]): 8.31 µM (≈ 3.88 µg/mL)
- MIC (Pseudomonas aeruginosa [4]): 16.6 µM (≈ 7.77 µg/mL)
- MIC (Pseudomonas aeruginosa [5]): 16.6 µM (≈ 7.77 µg/mL)
- MIC (Staphylococcus aureus [6]): 16.6 µM (≈ 7.77 µg/mL)
- MIC (Staphylococcus aureus [7]): 16.6 µM (≈ 7.77 µg/mL)
- MIC (Staphylococcus aureus [8]): 33.2 µM (≈ 15.5 µg/mL)
- MIC (Staphylococcus aureus [9]): > 200 µM
- Activity (Pseudomonas aeruginosa [10]): 71.6%
- Activity (Pseudomonas aeruginosa [11]): 82.4%
- Activity (Pseudomonas aeruginosa [12]): 88.5%
- MIC (Pseudomonas aeruginosa [13]): 68.5 µM (≈ 32 µg/mL)
- Ratio (Pseudomonas aeruginosa [14]): 3
